Measured values as given in PubChem BioAssay AID1963861 (Molecular Pharmacology Branch, DTP, NCI, 2024).

Test system: 885724-159-R-J1-PDC KRAS PDC multicell spheroid viability
Test: Anticancer human tumor 885724-159-R-J1-PDC patient-derived pancreatic adenocarcinoma cell line growth inhibition [KRAS2]
Conditions: for IC50: curve of first compound; for viability, T/C: stronger effect = lower value
Outline: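 Combination screen of spheroid viability in tumor-cell co-cultures with endothelial (HUVEC) and mesenchymal stem cell stroma. Each agent was tested in half-log dilutions, topping at clinical Cmax or at 10 microM without a known Cmax.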

[1] = second compound 0.0316 µM, first compound 0.000316 µM
[2] = second compound 0.0316 µM, first compound 0.001 µM
[3] = second compound 0.0316 µM, first compound 0.00316 µM
[4] = second compound 0.0316 µM, first compound 0.01 µM
[5] = second compound 0.0316 µM, first compound 0.0316 µM
[6] = second compound 0.1 µM, first compound 0.000316 µM
[7] = second compound 0.1 µM, first compound 0.001 µM
[8] = second compound 0.1 µM, first compound 0.00316 µM
[9] = second compound 0.1 µM, first compound 0.01 µM
[10] = second compound 0.1 µM, first compound 0.0316 µM
[11] = second compound 0.316 µM, first compound 0.000316 µM
[12] = second compound 0.316 µM, first compound 0.001 µM
[13] = second compound 0.316 µM, first compound 0.00316 µM
[14] = second compound 0.316 µM, first compound 0.01 µM
[15] = second compound 0.316 µM, first compound 0.0316 µM
[16] = second compound 1 µM, first compound 0.000316 µM
[17] = second compound 1 µM, first compound 0.001 µM
[18] = second compound 1 µM, first compound 0.00316 µM
[19] = second compound 1 µM, first compound 0.01 µM
[20] = second compound 1 µM, first compound 0.0316 µM
[21] = second compound 3.16 µM, first compound 0.000316 µM
[22] = second compound 3.16 µM, first compound 0.001 µM
[23] = second compound 3.16 µM, first compound 0.00316 µM
[24] = second compound 3.16 µM, first compound 0.01 µM
[25] = second compound 3.16 µM, first compound 0.0316 µM
[26] = second compound 0.0316 µM, first compound 0.1 µM
[27] = second compound 0.1 µM, first compound 0.1 µM
[28] = second compound 0.316 µM, first compound 0.1 µM
[29] = second compound 1 µM, first compound 0.1 µM
[30] = second compound 3.16 µM, first compound 0.1 µM
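Also: spheroids exposed to agents for 7 days before readout.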

Structure (SMILES) | IC50 (second compound 0.0316 µM) [nM] | IC50 (second compound 0.1 µM) [nM] | IC50 (second compound 0.316 µM) [nM] | IC50 (second compound 1 µM) [nM] | IC50 (second compound 3.16 µM) [nM] | viability, T/C [1] [%] | viability, T/C [2] [%] | viability, T/C [3] [%] | viability, T/C [4] [%] | viability, T/C [5] [%] | viability, T/C [6] [%] | viability, T/C [7] [%] | viability, T/C [9] [%] | viability, T/C [10] [%] | viability, T/C [14] [%] | viability, T/C [15] [%] | viability, T/C [19] [%] | viability, T/C [20] [%] | viability, T/C [24] [%] | viability, T/C [25] [%] | further results
CC(=O)Nc1cccc(-n2c(=O)n(C3CC3)c(=O)c3c(Nc4ccc(I)cc4F)n(C)c(=O)c(C)c32)c1 + C=CC(=O)N1CCN(c2nc(OCC3CCCN3C)nc3c2CCN(c2cccc4cccc(C)c24)C3)CC1CC#N | 1.33 | 1.48 | 0.933 | 0.625 | < 0.1 | 78.7 | 51.3 | 38.5 | 31 | 20.8 | 84 | 54.2 | 28.9 | 20.4 | 28.7 | 20.4 | 21.8 | 18.6 | 5.46 | 8.49 | viability, T/C (second compound 0.0316 µM, first compound 0.0001 µM): 107%; viability, T/C (second compound 0.1 µM, first compound 0.0001 µM): 92.3%; viability, T/C [8]: 37.3%; viability, T/C (second compound 0.316 µM, first compound 0.0001 µM): 92.6%; viability, T/C [11]: 74.8%; viability, T/C [12]: 45.1%; viability, T/C [13]: 34.8%; viability, T/C (second compound 1 µM, first compound 0.0001 µM): 85.1%; viability, T/C [16]: 64.3%; viability, T/C [17]: 39.5%; viability, T/C [18]: 27.7%; viability, T/C (second compound 3.16 µM, first compound 0.0001 µM): 45.4%; viability, T/C [21]: 37.8%; viability, T/C [22]: 18.8%; viability, T/C [23]: 18.8%
CC(=O)OC12COC1CC(O)C1(C)C(=O)C(O)C3=C(C)C(OC(=O)C(O)C(NC(=O)OC(C)(C)C)c4ccccc4)CC(O)(C(OC(=O)c4ccccc4)C21)C3(C)C (stereo not given) + C=CC(=O)N1CCN(c2nc(OCC3CCCN3C)nc3c2CCN(c2cccc4cccc(C)c24)C3)CC1CC#N | > 3160 | > 3160 | > 3160 | > 3160 | > 3160 | – | – | – | 86.9 | 95.8 | – | – | 87.5 | 94.9 | 85.5 | 97.5 | 82.6 | 86.9 | 87.2 | 100 | viability, T/C [26]: 102%; viability, T/C (second compound 0.0316 µM, first compound 0.316 µM): 101%; viability, T/C (second compound 0.0316 µM, first compound 1 µM): 110%; viability, T/C (second compound 0.0316 µM, first compound 3.16 µM): 109%; viability, T/C [27]: 97%; viability, T/C (second compound 0.1 µM, first compound 0.316 µM): 106%; viability, T/C (second compound 0.1 µM, first compound 1 µM): 116%; viability, T/C (second compound 0.1 µM, first compound 3.16 µM): 115%; viability, T/C [28]: 92.8%; viability, T/C (second compound 0.316 µM, first compound 0.316 µM): 101%; viability, T/C (second compound 0.316 µM, first compound 1 µM): 115%; viability, T/C (second compound 0.316 µM, first compound 3.16 µM): 103%; viability, T/C [29]: 91.8%; viability, T/C (second compound 1 µM, first compound 0.316 µM): 96.7%; viability, T/C (second compound 1 µM, first compound 1 µM): 99.2%; viability, T/C (second compound 1 µM, first compound 3.16 µM): 96.7%; viability, T/C [30]: 99.6%; viability, T/C (second compound 3.16 µM, first compound 0.316 µM): 105%; viability, T/C (second compound 3.16 µM, first compound 1 µM): 111%; viability, T/C (second compound 3.16 µM, first compound 3.16 µM): 115%
CN(C)C/C=C/C(=O)Nc1cc2c(Nc3ccc(F)c(Cl)c3)ncnc2cc1O[C@H]1CCOC1 + C=CC(=O)N1CCN(c2nc(OCC3CCCN3C)nc3c2CCN(c2cccc4cccc(C)c24)C3)CC1CC#N | > 100 | > 100 | > 100 | > 100 | 1.57 | 116 | 112 | 98.5 | 94.5 | 89.1 | 109 | 101 | 83.1 | 77.4 | 84.1 | 72 | 78.4 | 68.7 | 37.7 | 36.4 | viability, T/C [26]: 80.3%; viability, T/C [8]: 96.5%; viability, T/C [27]: 72%; viability, T/C [11]: 105%; viability, T/C [12]: 106%; viability, T/C [13]: 92.4%; viability, T/C [28]: 65.7%; viability, T/C [16]: 95%; viability, T/C [17]: 100%; viability, T/C [18]: 86.8%; viability, T/C [29]: 63.9%; viability, T/C [21]: 61.5%; viability, T/C [22]: 55.9%; viability, T/C [23]: 40.8%; viability, T/C [30]: 37.7%
